{"source": "patent US6255347A", "about": "(priority 1997, dated 2001)", "key": {"[1]": {"tested_on": "APPs secretion by NIH 3T3 cell lines", "conditions": "50 μM; for Density of APPs band: 20 h culture, n = 2, mean ± S.D."}, "[2]": {"conditions": "cited from earlier work"}}, "note": "Several values for one entry are separate records, joined by “and”; a condition that tells them apart may be missing. Identical values can stand only once. Counter-ions that a name gives are not always drawn. Like-named read-outs stand apart in the source and are kept apart here. *1 amine or outer side, *2 acyl side, *3 side chain or, on linkers, in order; H or OH if unused. Where a SMILES comes first, the peptide text is derived from it. Bridges are numbered along the chain shown (N, C = ends). Roman numbers before positions name the chains, in order. [ ]: non-standard residue; d: D form. Actinocin(9to1) = Cc1c2oc3c(C)ccc(C(=O)[*:1])c3nc-2c(C(=O)[*:2])c(N)c1=O; NMeV = CN[C@H](C(=O)O)C(C)C; Sar = CNCC(=O)O"}
{"smiles": "CC(C(=O)O)c1ccc(-c2ccccc2)c(F)c1", "note": "(racemic) [RS-Flubiprofen]", "values": [{"measurement": "Density of APPs band", "setting": "[1]", "result": "3.07 ± 0.34"}]}
{"smiles": "Cc1c2oc3c(C)ccc(C(=O)N[C@@H]4C(=O)N[C@H](C(C)C)C(=O)N5CCC[C@H]5C(=O)N(C)CC(=O)N(C)[C@@H](C(C)C)C(=O)O[C@@H]4C)c3nc-2c(C(=O)N[C@@H]2C(=O)N[C@H](C(C)C)C(=O)N3CCC[C@H]3C(=O)N(C)CC(=O)N(C)[C@@H](C(C)C)C(=O)O[C@@H]2C)c(N)c1=O", "note": "[Actinomycin D] (I: T[dV]P[Sar][NMeV] / II: T[dV]P[Sar][NMeV]; ester I:1-I:C, II:1-II:C; linker I:N-II:N via Actinocin(9to1))", "values": [{"measurement": "elimination half-life", "setting": "[2]; in vivo", "result": "about 36 hr"}, {"measurement": "excreted in urine", "setting": "[2]; in vivo", "result": 10, "unit": "%"}, {"measurement": "excreted intact into the bile (in words)", "setting": "[2]; in vivo", "result": "Half of the dose"}, {"measurement": "passage of blood-brain barrier", "setting": "[2]; in vivo", "result": "does not pass the blood-brain barrier"}]}
{"smiles": "O=C(O)CCCc1ccc(N(CCCl)CCCl)cc1", "note": "[Chlorambucil, 4-[bis(2-chlorethyl)amino]benzenebutanoic acid]", "values": [{"measurement": "terminal half-life", "setting": "[2]; in vivo", "result": 1.5, "unit": "h"}]}
{"smiles": "N.N.[Cl][Pt][Cl]", "note": "[Cisplatin]", "values": [{"measurement": "absorption (in words)", "setting": "[2]; oral", "result": "not absorbed orally"}]}
{"smiles": "COc1cccc2c1C(=O)c1c(O)c3c(c(O)c1C2=O)C[C@@](O)(C(C)=O)C[C@@H]3O[C@H]1C[C@H](N)[C@H](O)[C@H](C)O1", "note": "[Daunorubicin, 5,12-Naphthacenedione, (8S-cis)-8-acetyl-10-[(3-amino-2,3,6-trideoxy-α-L-lyxo-hexanopyranosyl)oxy]-7,8,9,10-tetrahydro-6,8, 11-trihydroxy-10-methoxy-, hydrochloride]", "values": [{"measurement": "absorption (in words)", "setting": "[2]; in vivo, po", "result": "Oral absorption is poor"}, {"measurement": "secreted into the bile", "setting": "[2]; in vivo", "result": "~40", "unit": "%"}]}
{"smiles": "COc1cccc2c1C(=O)c1c(O)c3c(c(O)c1C2=O)C[C@@](O)(C(=O)CO)C[C@@H]3O[C@H]1C[C@H](N)[C@H](O)[C@H](C)O1", "note": "[Doxorubicin, 5,12-Naphthacenedione, (8s-cis)-10-[(3-amino-2,3,6-trideoxy-a-L-lyxo-hexopyranosyl)oxy]-7,8,9,10-tetrahydro-6,8,11 trihydroxy-8-(hydroxyacetyl)-1-methoxy-hydrochloride]", "values": [{"measurement": "absorption (in words)", "setting": "[2]; in vivo, po", "result": "absorbed poorly"}, {"measurement": "elimination half-life", "setting": "[2]; in vivo", "result": "about 30 hr"}, {"measurement": "excreted in urine", "setting": "[2]; in vivo", "result": "a few percent"}]}
{"smiles": "CO[C@@]12[C@H](COC(N)=O)C3=C(C(=O)C(C)=C(N)C3=O)N1C[C@@H]1N[C@@H]12", "note": "[Mitomycin]", "values": [{"measurement": "time required to reduce the serum concentration by 50%", "setting": "[2]; human, in vivo, iv", "result": 17, "unit": "min"}, {"measurement": "clearance from serum (in words)", "setting": "[2]; in vivo, iv", "result": "rapidly cleared from the serum"}, {"measurement": "excreted in urine", "setting": "[2]; in vivo", "result": "Approximately 10%"}]}
{"smiles": "CN1C(C(=O)Nc2ccccn2)=C(O)c2ccccc2S1(=O)=O", "note": "[Proxicam]", "values": [{"measurement": "Density of APPs band", "setting": "[1]", "result": "3.29 ± 0.77"}]}
{"smiles": "C[C@@H](C(=O)O)c1ccc(-c2ccccc2)c(F)c1", "note": "[R-Flubiprofen]", "values": [{"measurement": "Density of APPs band", "setting": "[1]", "result": "3.30 ± 0.81"}]}
{"smiles": "C[C@@H](C(=O)O)c1cccc(C(=O)c2ccccc2)c1", "note": "[R-Ketoprofen]", "values": [{"measurement": "Density of APPs band", "setting": "[1]", "result": "3.41 ± 0.39 and 2.74 ± 0.34"}]}
{"smiles": "CC(C(=O)O)c1cccc(C(=O)c2ccccc2)c1", "note": "(stereo not shown) [RS-Ketoprofen]", "values": [{"measurement": "Density of APPs band", "setting": "[1]", "result": "3.67 ± 0.27 and 2.94 ± 0.98"}]}
{"smiles": "C[C@H](C(=O)O)c1ccc(-c2ccccc2)c(F)c1", "note": "[S-Flubiprofen]", "values": [{"measurement": "Density of APPs band", "setting": "[1]", "result": "2.37 ± 0.66"}]}
{"smiles": "C[C@H](C(=O)O)c1cccc(C(=O)c2ccccc2)c1", "note": "[S-Ketoprofen]", "values": [{"measurement": "Density of APPs band", "setting": "[1]", "result": "2.99 ± 0.57 and 3.76 ± 1.26"}]}
{"smiles": "CC[C@]1(O)C[C@H]2CN(CCc3c([nH]c4ccccc34)[C@@](C(=O)OC)(c3cc4c(cc3OC)N(C=O)[C@H]3[C@@](O)(C(=O)OC)[C@H](OC(C)=O)[C@]5(CC)C=CCN6CC[C@]43[C@@H]65)C2)C1", "note": "[Vincristine]", "values": [{"measurement": "concentration in blood cells (in words)", "setting": "[2]; in vivo", "result": "extensively concentrated in platelets and to a lesser extent in leukocytes and erythrocytes"}, {"measurement": "absorption (in words)", "setting": "[2]; oral", "result": "Unpredictable absorption"}]}
{"smiles": "COc1cccc2c1C(=O)c1c(O)c3c(c(O)c1C2=O)C[C@@](O)(C(C)O)C[C@@H]3O[C@H]1C[C@H](N)[C@H](O)[C@H](C)O1", "note": "(stereo partly shown) [daunorubicinol]", "values": [{"measurement": "elimination half-life", "setting": "[2]; in vivo", "result": "about 27 hr"}]}
{"smiles": "CC(C(=O)O)c1cccc(Oc2ccccc2)c1", "note": "(stereo not shown) [fenoprofen]", "values": [{"measurement": "APPs secretion (in words)", "setting": "[1]; 20 h", "result": "increased APPs secretion"}]}
